# Assay results reported in patent US20230107642A1 (Erasca, Inc., priority 2020, published 2023).
# Target: T1, Cys12 of the KRAS 4B G12C protein (Homo sapiens, UniProt P01116, G12C)
# T1 construct: This protein contained 188 amino acids in total, including an N-terminal 6-Histidine tag; made in house; host or cells: E. coli BL21
# Assay: In vitro covalent adduct formation (CAF) assay, LC-MS intact mass
# Format: binding
# Settings: 10 uM compound, 60 min
# How it was run: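 Percent covalent modification from intact-mass LC-MS, by relative free versus adducted protein (adducts within 1 Da of expected mass). Reaction: 10 μM compound with 5 μM E. coli-expressed, GDP-exchanged KRAS 4B G12C in TBS pH 7.4, 4% DMSO, 1 h at 22° C.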
row,% CAF 10 uM @ 60 min [%],Molecule
1,95.5,"C=CC(=O)N1[C@H](C)CN(c2nc(=O)n3c4c(c(-c5ccc(F)cc5)c(C(F)(F)F)cc24)SC[C@H](CO)C3)C[C@@H]1C [Example 1399, (S)-8-((3S,5R)-4-acryloyl-3,5-dimethylpiperazin-1-yl)-11-(4-fluorophenyl)-3-(hydroxymethyl)-10-(trifluoromethyl)-3,4-dihydro-2H,6H-[1,4]thiazepino[2,3,4-ij]quinazolin-6-one]"
2,96,"C=CC(=O)N1[C@H](C)CN(c2nc(=O)n3c4c(c(-c5ccc(F)c(Cl)c5)c(C(F)(F)F)cc24)SC[C@@H]3COC)C[C@@H]1C [Example 1316, (S)-7-((3S,5R)-4-acryloyl-3,5-dimethylpiperazin-1-yl)-10-(3-chloro-4-fluorophenyl)-3-(methoxymethyl)-9-(trifluoromethyl)-2,3-dihydro-5H-[1,4]thiazino[2,3,4-ij]quinazolin-5-one]"
3,68.7,"C=CC(=O)N1[C@H](C)CN(c2nc(=O)n3c4c(c(-c5cc(Cl)c(F)cc5F)c(C(F)(F)F)cc24)SC[C@@H]3CN2CCN(CC)CC2)C[C@@H]1C (atropisomer, axis not shown) [Example 1339]"
4,92.5,"C=CC(=O)N1[C@H](C)CN(c2nc(=O)n3c4c(c(-c5cccc6cnn(C)c56)c(C(F)(F)F)cc24)SC[C@@H]3CN2C[C@@H]3C[C@H]2CO3)C[C@@H]1C [Example 1385, (3S)-3-(((1S,4S)-2-oxa-5-azabicyclo[2.2.1]heptan-5-yl)methyl)-7-((3S,5R)-4-acryloyl-3,5-dimethylpiperazin-1-yl)-10-(1-methyl-1H-indazol-7-yl)-9-(trifluoromethyl)-2,3-dihydro-5H-[1,4]thiazino[2,3,4-ij]quinazolin-5-one]"
5,96.1,"C=CC(=O)N1C[C@H](C)N(c2nc(=O)n3c4c(c(-c5ccc(F)cc5F)c(C(F)(F)F)cc24)SC[C@@H]3CN2C[C@@H]3C[C@H]2CO3)C[C@H]1C (atropisomer, axis not shown) [Example 1323, (3S,10R)-3-(((1S,4S)-2-oxa-5-azabicyclo[2.2.1]heptan-5-yl)methyl)-7-((2S,5R)-4-acryloyl-2,5-dimethylpiperazin-1-yl)-10-(2,4-difluorophenyl)-9-(trifluoromethyl)-2,3-dihydro-5H-[1,4]thiazino[2,3,4-ij]quinazolin-5-one]"
6,97.4,"C=CC(=O)N1[C@H](C)CN(c2nc(=O)n3c4c(c(-c5ccc(F)cc5F)c(C(F)(F)F)cc24)SC[C@@H]3COCOC)C[C@@H]1C (atropisomer, axis not shown) [Example 1320, (3S,10R)-7-((3S,5R)-4-acryloyl-3,5-dimethylpiperazin-1-yl)-10-(2,4-difluorophenyl)-3-((methoxymethoxy)methyl)-9-(trifluoromethyl)-2,3-dihydro-5H-[1,4]thiazino[2,3,4-ij]quinazolin-5-one]"
7,87,"C=CC(=O)N1[C@H](C)CN(c2nc(=O)n3c4c(c(-c5cc(Cl)c(F)cc5F)c(C(F)(F)F)cc24)SCC(CO)(CO)C3)C[C@@H]1C [Example 1437, 8-((3S,5R)-4-acryloyl-3,5-dimethylpiperazin-1-yl)-11-(5-chloro-2,4-difluorophenyl)-3,3-bis(hydroxymethyl)-10-(trifluoromethyl)-3,4-dihydro-2H,6H-[1,4]thiazepino[2,3,4-ij]quinazolin-6-one]"
8,45,"C=CC(=O)N1C[C@H](C)N(c2nc(=O)n3c4c(c(-c5cc(Br)c(F)cc5F)c(C(F)(F)F)cc24)SCC2(COC2)C3)C[C@H]1C (atropisomer, axis not shown) [Example 1446, (S)-8′-((2S,5R)-4-Acryloyl-2,5-dimethylpiperazin-1-yl)-11′-(5-bromo-2,4-difluorophenyl)-10′-(trifluoromethyl)-2′H,4′H,6′H-spiro[oxetane-3,3′-[1,4]thiazepino[2,3,4-ij]quinazolin]-6′-one]"
9,46.8,"C=CC(=O)N1[C@H](C)CN(c2nc(=O)n3c4c(c(-c5ccc(F)c6cnn(C)c56)c(C(F)(F)F)cc24)SC[C@@H]3COC)C[C@@H]1C (atropisomer, axis not shown) [Example 1366a, (3S,10S)-7-((3S,5R)-4-acryloyl-3,5-dimethylpiperazin-1-yl)-10-(4-fluoro-1-methyl-1H-indazol-7-yl)-3-(methoxymethyl)-9-(trifluoromethyl)-2,3-dihydro-5H-[1,4]thiazino[2,3,4-ij]quinazolin-5-one]"
10,92.8,"(3S,10R)-7-((2S,5R)-4-acryloyl-2,5-dimethylpiperazin-1-yl)-10-(5-chloro-2,4-difluorophenyl)-3-((4-cyclopropylpiperazin-1-yl)methyl)-9-(trifluoromethyl)-2,3-dihydro-5H-[1,4]thiazino[2,3,4-ij]quinazolin-5-one [Example 1360]"

# Same assay, conditions: 10 uM compound, 60 min incubation
row,% CAF 10 uM @ 60 min [%],Molecule
1,85.6,"C=CC(=O)N1[C@H](C)CN(c2nc(=O)n3c4c(c(-c5cccc6cnn(C)c56)c(C(F)(F)F)cc24)SCC2(COC2)C3)C[C@@H]1C (atropisomer, axis not shown) [Example 1132, (S)-8′-((3S,5R)-4-acryloyl-3,5-dimethylpiperazin-1-yl)-11′-(1-methyl-1H-indazol-7-yl)-10′-(trifluoromethyl)-2′H,4′H,6′H-spiro[oxetane-3,3′-[1,4]thiazepino [2,3,4-ij]quinazolin]-6′-one]"
2,98,"C=CC(=O)N1[C@H](C)CN(c2nc(=O)n3c4c(c(-c5ccc(F)cc5)c(C(F)(F)F)cc24)SC[C@@H]3COC)C[C@@H]1C [Example 1103, (S)-7-((3S,5R)-4-acryloyl-3,5-dimethylpiperazin-1-yl)-10-(4-fluorophenyl)-3-(methoxymethyl)-9-(trifluoromethyl)-2,3-dihydro-5H-[1,4]thiazino[2,3,4-ij]quinazolin-5-one]"
3,95.2,"C=CC(=O)N1CCN(c2nc(=O)n3c4c(c(-c5ccc(F)cc5F)c(C(F)(F)F)cc24)SCC2(COC2)C3)CC1 [Example 1123, 8′-(4-acryloylpiperazin-1-yl)-11′-(2,4-difluorophenyl)-10′-(trifluoromethyl)-2′H,4′H,6′H-spiro[oxetane-3,3′-[1,4]thiazepino [2,3,4-ij]quinazolin]-6′-one]"
4,82.7,"C=CC(=O)N1[C@H](C)CN(c2nc(=O)n3c4c(c(-c5cc(Cl)c(F)cc5F)c(C(F)(F)F)cc24)SC[C@@H](N2CCOCC2)C3)C[C@@H]1C (atropisomer, axis not shown) [Example 1136, (3S,11R)-8-((3S,5R)-4-acryloyl-3,5-dimethylpiperazin-1-yl)-11-(5-chloro-2,4-difluorophenyl)-3-morpholino-10-(trifluoromethyl)-3,4-dihydro-2H,6H-[1,4]thiazepino [2,3,4-ij]quinazolin-6-one]"

# Same assay, conditions: 10 μM compound, after 1 hour
row,CAF (% after 1 hour) [%],Molecule
1,91,"C=CC(=O)N1[C@H](C)CN(c2nc(=O)n3c4c(c(-c5cc(Cl)c(F)cc5F)c(C(F)(F)F)cc24)SC[C@@H](NCC(F)(F)F)C3)C[C@@H]1C [Example 1240, (3S)-8-((3S,5R)-4-acryloyl-3,5-dimethylpiperazin-1-yl)-11-(5-chloro-2,4-difluorophenyl)-3-((2,2,2-trifluoroethyl)amino)-10-(trifluoromethyl)-3,4-dihydro-2H,6H-[1,4]thiazepino[2,3,4-ij]quinazolin-6-one]"
2,67,"C=C(F)C(=O)N1[C@H](C)CN(c2nc(=O)n3c4c(c(-c5ccc(F)cc5F)c(C(F)(F)F)cc24)SC[C@@H](OC)C3)C[C@@H]1C [Example 1220, (3S)-11-(2,4-Difluorophenyl)-8-((3S,5R)-4-(2-fluoroacryloyl)-3,5-dimethylpiperazin-1-yl)-3-methoxy-10-(trifluoromethyl)-3,4-dihydro-2H,6H-[1,4]thiazepino[2,3,4-ij]quinazolin-6-one]"

# Same assay, conditions: after 60 min
row,CAF (% binding after 60 min) [%],Molecule
1,97,"C=CC(=O)N1CCN(c2nc(=O)n3c4c(c(-c5ccc(F)c(Cl)c5)c(C(F)(F)F)cc24)SC[C@@H](OCCOC)C3)CC1 [Example 1021, (S)-8-(4-acryloylpiperazin-1-yl)-11-(3-chloro-4-fluorophenyl)-3-(2-methoxyethoxy)-10-(trifluoromethyl)-3,4-dihydro-2H,6H-[1,4]thiazepino[2,3,4-ij]quinazolin-6-one]"
2,97,"C=CC(=O)N1CCN(c2nc(=O)n3c4c(c(-c5ccc(F)cc5)c(C(F)(F)F)cc24)SC[C@H](O)C3)CC1 [Example 1002, (R)-8-(4-acryloylpiperazin-1-yl)-11-(4-fluorophenyl)-3-hydroxy-10-(trifluoromethyl)-3,4-dihydro-2H,6H-[1,4]thiazepino[2,3,4-ij]quinazolin-6-one]"
3,97,"C=CC(=O)N1CCN(c2nc(=O)n3c4c(c(-c5ccc(F)cc5)c(C(F)(F)F)cc24)SC[C@@H](OCOC)C3)CC1 [Example 1004, (S)-8-(4-acryloylpiperazin-1-yl)-11-(4-fluorophenyl)-3-(methoxymethoxy)-10-(trifluoromethyl)-3,4-dihydro-2H,6H-[1,4]thiazepino[2,3,4-ij]quinazolin-6-one]"
4,92,"C=CC(=O)N1[C@H](C)CN(c2nc(=O)n3c4c(c(-c5ccc(F)cc5)c(C(F)(F)F)cc24)SC[C@@H](N)C3)C[C@@H]1C [Example 1032, (S)-8-((3S,5R)-4-acryloyl-3,5-dimethylpiperazin-1-yl)-3-amino-11-(4-fluorophenyl)-10-(trifluoromethyl)-3,4-dihydro-2H,6H-[1,4]thiazepino[2,3,4-ij]quinazolin-6-one]"
5,96,"C=CC(=O)N1[C@H](C)CN(c2nc(=O)n3c4c(c(-c5ccc(F)c(Cl)c5)c(C(F)(F)F)cc24)SC[C@H](OC)C3)C[C@@H]1C [Example 1045, (R)-8-((3S,5R)-4-acryloyl-3,5-dimethylpiperazin-1-yl)-11-(3-chloro-4-fluorophenyl)-3-methoxy-10-(trifluoromethyl)-3,4-dihydro-2H,6H-[1,4]thiazepino[2,3,4-ij]quinazolin-6-one]"
